Test results: ChEMBL document CHEMBL1201862, “PubChem BioAssay data set” (2004)
Blank lines part the entries; values can stand above or below the compound they belong to. Activity calls are given as the source filed them. For most assays here, no stated cut-off is given here; in the data, active = IC50 of 10 µM or less and inactive = more.

What was measured:
Type in all cases: functional
[1] = Counterscreen for IDE inhibitors: Luminescence-based cell-based high throughput dose response assay to identify compounds that are cytotoxic to HEK cells. [Related pubchem assays: 434962 (Primary screen (IDE inhibitors in singlicate)), 449730 (Counterscreen (Cytotoxicity in triplicate)), 435028 (Confirmation (IDE inhibitors in triplicate)) …; settings: HEK293
Insulin-degrading enzyme = biological target: T1, Insulin-degrading enzyme (Homo sapiens, UniProt P14735); test: Dose Response: Fluorescence polarization-based cell-based high throughput dose response assay for inhibitors of insulin-degrading enzyme (IDE). [Related pubchem assays: 434962 (Primary screen (IDE inhibitors in singlicate)), 449730 (Counterscreen (Cytotoxicity in triplicate)), 435028 (Confirmation (IDE inhibitors in triplicate)), 434984 (Summary …
T1 sequence (P14735 whole entry): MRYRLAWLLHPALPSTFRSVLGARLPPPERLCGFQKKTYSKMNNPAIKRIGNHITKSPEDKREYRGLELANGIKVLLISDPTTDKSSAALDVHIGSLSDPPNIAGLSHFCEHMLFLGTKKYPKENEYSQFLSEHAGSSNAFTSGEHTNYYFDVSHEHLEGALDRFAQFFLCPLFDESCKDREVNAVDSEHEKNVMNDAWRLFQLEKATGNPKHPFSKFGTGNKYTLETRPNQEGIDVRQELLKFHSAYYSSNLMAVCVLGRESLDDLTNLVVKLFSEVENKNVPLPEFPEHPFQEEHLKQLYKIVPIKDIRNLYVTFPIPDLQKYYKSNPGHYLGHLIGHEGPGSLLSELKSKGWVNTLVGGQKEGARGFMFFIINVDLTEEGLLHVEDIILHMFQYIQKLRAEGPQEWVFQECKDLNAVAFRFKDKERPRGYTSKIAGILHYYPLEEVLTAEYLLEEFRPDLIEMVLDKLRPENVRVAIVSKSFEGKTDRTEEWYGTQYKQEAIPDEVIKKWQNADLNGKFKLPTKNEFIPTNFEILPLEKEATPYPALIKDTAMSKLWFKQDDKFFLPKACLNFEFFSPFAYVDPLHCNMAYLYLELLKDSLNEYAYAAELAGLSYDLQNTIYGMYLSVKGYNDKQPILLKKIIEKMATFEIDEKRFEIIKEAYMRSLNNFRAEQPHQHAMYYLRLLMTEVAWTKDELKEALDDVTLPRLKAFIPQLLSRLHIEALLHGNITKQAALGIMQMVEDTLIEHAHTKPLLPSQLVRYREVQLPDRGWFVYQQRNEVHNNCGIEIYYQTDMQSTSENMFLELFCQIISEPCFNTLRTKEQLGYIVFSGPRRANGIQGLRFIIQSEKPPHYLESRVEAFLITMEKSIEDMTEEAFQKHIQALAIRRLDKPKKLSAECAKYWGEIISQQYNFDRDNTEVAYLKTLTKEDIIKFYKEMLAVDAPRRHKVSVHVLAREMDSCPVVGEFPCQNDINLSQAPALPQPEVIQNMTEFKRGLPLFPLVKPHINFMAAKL

[2] = biological target: Peroxisome proliferator-activated receptor gamma/Nuclear receptor corepressor 2 (Homo sapiens, UniProt P37231+Q9Y618); test: Counterscreen for NR2E3 inverse agonists: TR-FRET-based biochemical high throughput dose response assay to identify inverse agonists of the interaction between peroxisome proliferator-activated receptor gamma (PPARg) and nuclear receptor co-repressor 2 (NCOR2).
[3] = biological target: Photoreceptor-specific nuclear receptor (Homo sapiens, UniProt Q9Y5X4); test: NR2E3 inverse agonists, dose response, biochemical, TR-FRET (AID 463256)
[4] = biological target: T2, Corticotropin-releasing factor receptor 2/Corticotropin-releasing factor-binding protein (Homo sapiens, UniProt P24387+Q13324); test: Dose Response confirmation of uHTS hits for small molecule antagonists of the CRF-binding protein and CRF-R2 receptor complex.; settings: read-out: IC50_Mean
T2 sequence (Q13324 whole entry): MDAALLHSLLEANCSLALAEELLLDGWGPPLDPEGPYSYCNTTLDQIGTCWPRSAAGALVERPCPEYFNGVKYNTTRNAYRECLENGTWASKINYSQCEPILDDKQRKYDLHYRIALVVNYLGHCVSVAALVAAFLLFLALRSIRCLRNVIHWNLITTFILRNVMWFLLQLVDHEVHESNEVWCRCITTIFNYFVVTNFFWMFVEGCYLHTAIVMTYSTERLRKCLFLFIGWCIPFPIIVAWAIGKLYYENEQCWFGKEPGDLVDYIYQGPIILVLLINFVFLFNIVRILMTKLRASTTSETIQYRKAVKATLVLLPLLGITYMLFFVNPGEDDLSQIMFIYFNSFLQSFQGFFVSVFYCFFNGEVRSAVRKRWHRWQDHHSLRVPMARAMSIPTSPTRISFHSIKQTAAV
T2 sequence (P24387 whole entry): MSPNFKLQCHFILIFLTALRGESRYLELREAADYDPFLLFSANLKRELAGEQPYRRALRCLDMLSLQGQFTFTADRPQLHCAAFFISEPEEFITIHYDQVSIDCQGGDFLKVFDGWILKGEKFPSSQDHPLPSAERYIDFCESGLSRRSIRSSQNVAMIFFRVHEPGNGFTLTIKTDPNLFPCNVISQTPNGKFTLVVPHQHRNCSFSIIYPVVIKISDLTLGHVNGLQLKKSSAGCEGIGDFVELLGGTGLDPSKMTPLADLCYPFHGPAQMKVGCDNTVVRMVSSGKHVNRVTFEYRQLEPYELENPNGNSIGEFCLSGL

[5] = biological target: T2, Corticotropin-releasing factor receptor 2/Corticotropin-releasing factor-binding protein; test: activators of CRF receptor 2 with binding protein – uHTS hits, confirmation (AID 602473); settings: read-out: EC50_Mean
[6] = Luminescence-based counterscreen assay for KLF5 inhibitors: dose response cell-based high throughput screening assay to identify cytotoxic compounds using the IEC-6 intestinal epithelial cell line. [Related pubchem assays: 1700 (Primary screen.), 1834 (Confirmation screen.), 1858 (Summary AID.), 1905 (Counterscreen.)]

Peroxisome proliferator-activated receptor gamma/Nuclear receptor corepressor 2, sequence (P37231 whole entry): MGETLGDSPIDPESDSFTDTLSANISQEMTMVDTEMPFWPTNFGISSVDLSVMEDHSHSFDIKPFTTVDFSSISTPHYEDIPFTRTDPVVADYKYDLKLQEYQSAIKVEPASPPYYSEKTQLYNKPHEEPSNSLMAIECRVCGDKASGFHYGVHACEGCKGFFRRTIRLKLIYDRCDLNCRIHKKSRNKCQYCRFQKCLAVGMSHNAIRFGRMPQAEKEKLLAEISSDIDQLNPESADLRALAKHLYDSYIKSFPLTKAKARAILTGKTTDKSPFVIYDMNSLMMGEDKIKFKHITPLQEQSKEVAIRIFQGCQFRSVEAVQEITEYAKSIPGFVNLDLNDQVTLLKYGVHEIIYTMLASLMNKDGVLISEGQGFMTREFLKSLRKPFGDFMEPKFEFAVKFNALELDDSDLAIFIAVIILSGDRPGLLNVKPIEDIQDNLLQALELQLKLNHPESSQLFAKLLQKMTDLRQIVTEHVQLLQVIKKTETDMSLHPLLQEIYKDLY
Peroxisome proliferator-activated receptor gamma/Nuclear receptor corepressor 2, sequence (Q9Y618 whole entry): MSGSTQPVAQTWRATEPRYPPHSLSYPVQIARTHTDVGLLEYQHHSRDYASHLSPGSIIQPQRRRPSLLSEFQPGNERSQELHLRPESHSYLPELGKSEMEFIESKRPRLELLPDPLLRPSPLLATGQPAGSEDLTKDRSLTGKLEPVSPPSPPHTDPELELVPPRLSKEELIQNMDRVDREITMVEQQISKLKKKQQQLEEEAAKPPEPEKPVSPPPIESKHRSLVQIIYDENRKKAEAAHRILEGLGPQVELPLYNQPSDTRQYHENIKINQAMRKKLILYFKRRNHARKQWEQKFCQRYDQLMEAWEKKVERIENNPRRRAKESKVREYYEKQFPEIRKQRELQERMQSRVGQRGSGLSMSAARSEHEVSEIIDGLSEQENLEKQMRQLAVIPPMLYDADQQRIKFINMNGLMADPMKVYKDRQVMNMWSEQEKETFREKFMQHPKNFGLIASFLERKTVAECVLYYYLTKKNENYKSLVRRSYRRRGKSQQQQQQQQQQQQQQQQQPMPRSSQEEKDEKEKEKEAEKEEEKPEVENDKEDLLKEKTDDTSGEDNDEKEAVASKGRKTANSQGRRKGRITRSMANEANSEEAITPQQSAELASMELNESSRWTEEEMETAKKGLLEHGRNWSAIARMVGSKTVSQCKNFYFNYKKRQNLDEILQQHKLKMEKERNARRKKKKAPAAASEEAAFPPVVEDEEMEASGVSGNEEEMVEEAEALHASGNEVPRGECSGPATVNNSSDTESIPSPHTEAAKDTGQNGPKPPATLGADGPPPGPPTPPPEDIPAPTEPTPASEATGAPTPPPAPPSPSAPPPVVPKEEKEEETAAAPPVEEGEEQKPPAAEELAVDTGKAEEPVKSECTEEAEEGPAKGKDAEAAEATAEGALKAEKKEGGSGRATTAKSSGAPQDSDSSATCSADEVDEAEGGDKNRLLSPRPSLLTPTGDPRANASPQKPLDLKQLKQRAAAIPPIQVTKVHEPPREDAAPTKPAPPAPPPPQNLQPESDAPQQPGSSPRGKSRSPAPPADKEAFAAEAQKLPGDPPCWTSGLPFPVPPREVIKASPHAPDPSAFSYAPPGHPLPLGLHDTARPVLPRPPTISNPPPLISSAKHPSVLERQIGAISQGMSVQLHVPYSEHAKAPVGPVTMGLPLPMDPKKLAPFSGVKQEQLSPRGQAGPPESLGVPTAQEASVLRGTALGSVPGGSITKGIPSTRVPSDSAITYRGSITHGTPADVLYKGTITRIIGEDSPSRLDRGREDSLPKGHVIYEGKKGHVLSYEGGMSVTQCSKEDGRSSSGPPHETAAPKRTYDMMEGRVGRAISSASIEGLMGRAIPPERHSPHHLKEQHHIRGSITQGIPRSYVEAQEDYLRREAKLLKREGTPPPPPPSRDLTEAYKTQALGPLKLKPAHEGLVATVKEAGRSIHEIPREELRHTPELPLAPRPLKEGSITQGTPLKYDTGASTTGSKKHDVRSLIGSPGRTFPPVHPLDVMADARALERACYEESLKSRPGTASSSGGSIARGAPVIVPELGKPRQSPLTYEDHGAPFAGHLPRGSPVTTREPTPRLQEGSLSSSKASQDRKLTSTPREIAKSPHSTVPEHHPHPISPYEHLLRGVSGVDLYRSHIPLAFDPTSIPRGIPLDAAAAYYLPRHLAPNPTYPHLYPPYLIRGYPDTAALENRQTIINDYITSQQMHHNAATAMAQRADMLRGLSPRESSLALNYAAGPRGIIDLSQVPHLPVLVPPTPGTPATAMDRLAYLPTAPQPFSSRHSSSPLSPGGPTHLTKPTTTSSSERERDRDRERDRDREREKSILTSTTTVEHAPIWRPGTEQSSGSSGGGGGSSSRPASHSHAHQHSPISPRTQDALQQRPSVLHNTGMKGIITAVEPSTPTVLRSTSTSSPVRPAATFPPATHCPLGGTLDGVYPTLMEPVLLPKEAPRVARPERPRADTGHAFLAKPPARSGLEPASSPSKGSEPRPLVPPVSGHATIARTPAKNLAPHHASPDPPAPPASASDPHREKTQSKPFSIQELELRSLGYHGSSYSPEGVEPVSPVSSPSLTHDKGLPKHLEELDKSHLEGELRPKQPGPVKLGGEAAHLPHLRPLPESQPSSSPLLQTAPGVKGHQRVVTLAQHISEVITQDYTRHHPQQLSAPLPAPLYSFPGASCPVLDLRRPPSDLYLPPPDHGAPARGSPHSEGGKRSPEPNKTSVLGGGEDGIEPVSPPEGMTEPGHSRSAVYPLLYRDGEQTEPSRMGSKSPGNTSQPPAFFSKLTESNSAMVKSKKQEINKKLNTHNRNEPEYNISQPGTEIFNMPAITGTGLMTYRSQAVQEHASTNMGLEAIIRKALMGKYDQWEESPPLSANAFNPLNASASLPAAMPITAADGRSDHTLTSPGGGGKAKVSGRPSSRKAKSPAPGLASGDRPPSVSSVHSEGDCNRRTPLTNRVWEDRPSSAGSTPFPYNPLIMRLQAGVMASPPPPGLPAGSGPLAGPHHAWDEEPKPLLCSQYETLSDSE
Photoreceptor-specific nuclear receptor, sequence (Q9Y5X4 whole entry): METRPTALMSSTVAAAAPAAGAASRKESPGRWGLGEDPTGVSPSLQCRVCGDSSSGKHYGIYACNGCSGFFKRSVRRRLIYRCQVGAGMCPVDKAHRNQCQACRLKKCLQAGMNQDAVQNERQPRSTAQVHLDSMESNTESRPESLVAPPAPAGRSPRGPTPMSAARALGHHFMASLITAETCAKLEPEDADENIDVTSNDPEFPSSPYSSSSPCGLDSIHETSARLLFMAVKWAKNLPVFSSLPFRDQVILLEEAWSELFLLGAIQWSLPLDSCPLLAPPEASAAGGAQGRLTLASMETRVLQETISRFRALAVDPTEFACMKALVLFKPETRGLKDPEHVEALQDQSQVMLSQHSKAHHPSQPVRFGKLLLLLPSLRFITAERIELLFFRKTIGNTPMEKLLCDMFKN

Compound: CC(C)(C)C(=O)N1CCN(c2ccnc3cc(Cl)ccc23)CC1
- IC50 [1]: 20.8 µM (not active)
- IC50 (Insulin-degrading enzyme): 18.6 µM (not active)

- IC50 [2]: 2.9 µM (active)
- IC50 [3]: 3.53 µM (active)
- IC50 [4]: > 47.1 µM (inactive)
- EC50 [5]: > 53 µM (inactive)
Compound: CC(=O)c1ccc(NC(=O)CSc2ccc(-c3ccc4c(c3)OCO4)nn2)cc1

Compound: COc1ccc2nc(SCC(=O)NC3CCCC3)c(C)cc2c1
- IC50 [6]: 16 µM (not active)
